Assay results reported in patent US20230382949A1 (HEPTARES THERAPEUTICS LIMITED, priority 2020, published 2023).
Where two headings read alike, the source gives them in different places. Starred links: 1 amine or outer side, 2 acyl side, 3 side chain; linkers in the order of their positions; H or OH if unused. Non-standard residues stand in square brackets, D forms with d. Residues, ends and D or L forms follow the SMILES beside them. *: point of attachment. Ala(piperidin-4-yl) = O=C([C@H](CC1CCN([*:3])CC1)N[*:1])[*:2]; Malonyl(2,2-Me2,histaminyl) = CC(C)(C(=O)NCCc1cnc[nH]1)C(=O)*; dBip = N[C@H](Cc1ccc(-c2ccccc2)cc1)C(=O)O; Oic = O=C(O)[C@@H]1C[C@@H]2CCCC[C@@H]2N1; Phe(4-Br) = N[C@@H](Cc1ccc(Br)cc1)C(=O)O; X5 = CC(C)(C(=O)NCc1c[nH]cn1)C(=O)*; X3 = CC(C)(C(=O)NCCc1ccccn1)C(=O)*; Ser(ΨH,HPro) = O=C(O)[C@@H]1COCN1; hArg = N=C(N)NCCCC[C@H](N)C(=O)O; hPhe = N[C@@H](CCc1ccccc1)C(=O)O; 3Pal = N[C@@H](Cc1cccnc1)C(=O)O; Pip = O=C(O)[C@@H]1CCCCN1; Nle = CCCC[C@H](N)C(=O)O; Aib = CC(C)(N)C(=O)O

Key:
[1] = target: T1, human Apelin receptor (Homo sapiens, UniProt P35414); assay: cAMP accumulation assay (HTRF), functional agonism of human Apelin receptors; format: cell-based; conditions: for Emax: CHO
T1 sequence (P35414 1-380): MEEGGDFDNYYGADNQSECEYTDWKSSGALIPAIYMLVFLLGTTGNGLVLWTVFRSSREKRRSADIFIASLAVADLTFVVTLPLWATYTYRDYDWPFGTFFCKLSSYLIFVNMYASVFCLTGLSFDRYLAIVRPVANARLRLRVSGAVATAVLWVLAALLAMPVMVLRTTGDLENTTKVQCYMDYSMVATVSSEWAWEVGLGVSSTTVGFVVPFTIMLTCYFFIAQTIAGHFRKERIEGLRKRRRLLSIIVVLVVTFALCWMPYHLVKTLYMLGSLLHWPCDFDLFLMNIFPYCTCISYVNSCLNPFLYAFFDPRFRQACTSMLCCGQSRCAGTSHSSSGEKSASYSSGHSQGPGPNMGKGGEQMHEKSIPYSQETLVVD
From the text: cAMP functional assay. cAMP production was quantified using the Homogeneous Time-Resolved Fluorescence (HTRF) cAMP dynamic-2 assay (Cisbio, France).

[2] = target: T2, human Apelin receptor (Homo sapiens, UniProt P35414); assay: β-arrestin accumulation assay, functional agonism of human Apelin receptors; format: cell-based
T2 construct: host or cells: CHO-K1 cells
Outline: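 After 16 h at 37° C., cells were exposed to increasing agonist concentrations in serum-free medium for 90 min at 37° C. Detection reagent added for 60 min in the dark; receptor activation read by fluorescence and EC50 derived from concentration-response curves.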
T2 sequence (P32121 whole entry partner, one chain of several): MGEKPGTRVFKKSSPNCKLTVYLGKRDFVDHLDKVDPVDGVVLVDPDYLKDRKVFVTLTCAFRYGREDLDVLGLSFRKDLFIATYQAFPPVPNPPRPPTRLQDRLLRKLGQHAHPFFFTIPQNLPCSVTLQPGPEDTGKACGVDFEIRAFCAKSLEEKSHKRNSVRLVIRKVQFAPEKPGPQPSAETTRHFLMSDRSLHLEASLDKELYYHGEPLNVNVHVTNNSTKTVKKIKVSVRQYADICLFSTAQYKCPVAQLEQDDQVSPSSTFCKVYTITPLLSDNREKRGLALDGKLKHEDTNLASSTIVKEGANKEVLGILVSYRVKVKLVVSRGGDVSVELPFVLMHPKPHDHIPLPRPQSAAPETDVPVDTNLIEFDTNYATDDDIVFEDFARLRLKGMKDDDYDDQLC

[3] = Human Apelin agonist cAMP assay, CHO cells stably expressing the human Apelin receptor, 3 uM forskolin
[4] = pEC50, Human Apelin agonist cAMP assay, CHO cells stably expressing the human Apelin receptor, 3 uM forskolin

Row | Emax ([1]; read-out: Emax) | EC50 ([1]; read-out: pEC50 (converted)) | Structure (SMILES) | Emax [1, 3] | EC50 [1, 4] | EC50 [2]
1 |  |  | CC(C)C[C@H](NC(=O)[C@@H](CCCNC(=N)N)NC(=O)[C@@H]1CCCN1C(=O)[C@H](CCCCNC(=N)N)NC(=O)[C@H](CCC(N)=O)NC(=O)[C@@H](CCCNC(=N)N)NC(=O)C(C)(C)C(=O)NCCc1c[nH]cn1)C(=O)NC(C)(C)C(=O)N[C@@H](Cc1cccnc1)C(=O)N[C@@H](CC1CCNCC1)C(=O)NCC(=O)N1[C@H](C(=O)N[C@@H](Cc2ccc(Br)cc2)C(=O)N2CCC[C@H]2C(=O)N[C@H](Cc2ccc(-c3ccccc3)cc2)C(=O)O)C[C@@H]2CCCC[C@@H]21 [Example 15] ({Malonyl(2,2-Me2,histaminyl)}-[dR]Q[hArg]P[dR]L[Aib][3Pal][Ala(piperidin-4-yl)]G[Oic][Phe(4-Br)]P[dBip]-OH) | 86.4% | 7.94 nM | > 10 µM
2 | 68.1% | 20 nM | CC(C)C[C@H](NC(=O)[C@@H](CCCNC(=N)N)NC(=O)[C@@H]1CCCCN1C(=O)[C@H](CCCCNC(=N)N)NC(=O)[C@H](CCC(N)=O)NC(=O)C(C)(C)C(=O)NCCc1cnc[nH]1)C(=O)NC(C)(C)C(=O)N[C@@H](Cc1cccnc1)C(=O)N[C@@H](CC1CCNCC1)C(=O)NCC(=O)N1[C@H](C(=O)N[C@@H](Cc2ccc(Br)cc2)C(=O)N2CCC[C@H]2C(=O)N[C@H](Cc2ccc(-c3ccccc3)cc2)C(=O)O)C[C@@H]2CCCC[C@@H]21 [Example 56] ({Malonyl(2,2-Me2,histaminyl)}-Q[hArg][Pip][dR]L[Aib][3Pal][Ala(piperidin-4-yl)]G[Oic][Phe(4-Br)]P[dBip]-OH) |  |  | > 10 µM
3 |  |  | CC(C)C[C@H](NC(=O)[C@@H](CCCNC(=N)N)NC(=O)[C@@H]1CCCN1C(=O)[C@H](CCCNC(=N)N)NC(=O)[C@H](CCC(N)=O)NC(=O)[C@@H](CCCNC(=N)N)NC(=O)C(C)(C)C(=O)NCCc1c[nH]cn1)C(=O)NC(C)(C)C(=O)N[C@@H](Cc1c[nH]cn1)C(=O)N[C@@H](CC1CCNCC1)C(=O)NCC(=O)N1[C@H](C(=O)N[C@@H](Cc2ccc(Br)cc2)C(=O)N2CCC[C@H]2C(=O)N[C@H](Cc2ccc(-c3ccccc3)cc2)C(=O)O)C[C@@H]2CCCC[C@@H]21 [Example 9] ({Malonyl(2,2-Me2,histaminyl)}-[dR]QRP[dR]L[Aib]H[Ala(piperidin-4-yl)]G[Oic][Phe(4-Br)]P[dBip]-OH) | 86.9% | 6.31 nM | > 10 µM
4 |  |  | CC(C)C[C@H](NC(=O)[C@@H](CCCNC(=N)N)NC(=O)[C@@H]1COCN1C(=O)[C@H](CCCCNC(=N)N)NC(=O)[C@H](CCC(N)=O)NC(=O)[C@@H](CCCNC(=N)N)NC(=O)C(C)(C)C(=O)NCCc1c[nH]cn1)C(=O)NC(C)(C)C(=O)N[C@@H](Cc1c[nH]cn1)C(=O)N[C@@H](CC1CCNCC1)C(=O)NCC(=O)N1[C@H](C(=O)N[C@@H](Cc2ccc(Br)cc2)C(=O)N2CCC[C@H]2C(=O)N[C@H](Cc2ccc(-c3ccccc3)cc2)C(=O)O)C[C@@H]2CCCC[C@@H]21 [Example 11] ({Malonyl(2,2-Me2,histaminyl)}-[dR]Q[hArg][Ser(ΨH,HPro)][dR]L[Aib]H[Ala(piperidin-4-yl)]G[Oic][Phe(4-Br)]P[dBip]-OH) | 90.6% | 12.6 nM | > 10 µM
5 |  |  | CC(C)C[C@H](NC(=O)[C@@H](CCCNC(=N)N)NC(=O)[C@@H]1CCCN1C(=O)[C@H](CCCCNC(=N)N)NC(=O)[C@H](CCC(N)=O)NC(=O)C(C)(C)C(=O)NCCc1cnc[nH]1)C(=O)N[C@H](C)C(=O)N[C@@H](Cc1c[nH]cn1)C(=O)N[C@@H](CC1CCNCC1)C(=O)NCC(=O)N1[C@H](C(=O)N[C@@H](Cc2ccc(Br)cc2)C(=O)N2CCC[C@H]2C(=O)N[C@H](Cc2ccc(-c3ccccc3)cc2)C(=O)O)C[C@@H]2CCCC[C@@H]21 [Example 38] ({Malonyl(2,2-Me2,histaminyl)}-Q[hArg]P[dR]L[dA]H[Ala(piperidin-4-yl)]G[Oic][Phe(4-Br)]P[dBip]-OH) | 27.9% | 31.6 nM | > 10 µM
6 |  |  | CC(C)C[C@H](NC(=O)[C@@H](CCCNC(=N)N)NC(=O)[C@@H]1CCCN1C(=O)[C@H](CCCCNC(=N)N)NC(=O)[C@H](CCC(N)=O)NC(=O)[C@@H](CCCNC(=N)N)NC(=O)C(C)(C)C(=O)NCCc1ccccn1)C(=O)NC(C)(C)C(=O)N[C@@H](Cc1c[nH]cn1)C(=O)N[C@@H](CC1CCNCC1)C(=O)NCC(=O)N1[C@H](C(=O)N[C@@H](Cc2ccc(Br)cc2)C(=O)N2CCC[C@H]2C(=O)N[C@H](Cc2ccc(-c3ccccc3)cc2)C(=O)O)C[C@@H]2CCCC[C@@H]21 [Example 6] (X3-[dR]Q[hArg]P[dR]L[Aib]H[Ala(piperidin-4-yl)]G[Oic][Phe(4-Br)]P[dBip]-OH) | 53.9% | 20 nM | > 10 µM
7 | 59% | 50.1 nM | CCCC[C@H](NC(=O)[C@@H]1C[C@@H]2CCCC[C@@H]2N1C(=O)CNC(=O)[C@H](CC1CCNCC1)NC(=O)[C@H](Cc1ccc(Br)cc1)NC(=O)C(C)(C)NC(=O)[C@H](CC(C)C)NC(=O)[C@@H](CCCNC(=N)N)NC(=O)[C@@H]1CCCN1C(=O)[C@H](CCCCNC(=N)N)NC(=O)[C@H](CCC(N)=O)NC(=O)C(C)(C)C(=O)NCCc1cnc[nH]1)C(=O)N1CCC[C@H]1C(=O)N[C@H](Cc1ccc(-c2ccccc2)cc1)C(=O)O [Example 60] ({Malonyl(2,2-Me2,histaminyl)}-Q[hArg]P[dR]L[Aib][Phe(4-Br)][Ala(piperidin-4-yl)]G[Oic][Nle]P[dBip]-OH) |  |  | > 10 µM
8 |  |  | CC(C)C[C@H](NC(=O)[C@@H](CCCNC(=N)N)NC(=O)[C@@H]1CCCN1C(=O)[C@H](CCCCNC(=N)N)NC(=O)[C@H](CCc1ccccc1)NC(=O)[C@@H](CCCNC(=N)N)NC(=O)C(C)(C)C(=O)NCCc1c[nH]cn1)C(=O)NC(C)(C)C(=O)N[C@@H](Cc1c[nH]cn1)C(=O)N[C@@H](CC1CCNCC1)C(=O)NCC(=O)N1[C@H](C(=O)N[C@@H](Cc2ccc(Br)cc2)C(=O)N2CCC[C@H]2C(=O)N[C@H](Cc2ccc(-c3ccccc3)cc2)C(=O)O)C[C@@H]2CCCC[C@@H]21 [Example 8] ({Malonyl(2,2-Me2,histaminyl)}-[dR][hPhe][hArg]P[dR]L[Aib]H[Ala(piperidin-4-yl)]G[Oic][Phe(4-Br)]P[dBip]-OH) | 56.1% | 15.8 nM | > 10 µM
9 |  |  | CC(C)C[C@H](NC(=O)[C@@H](CCCNC(=N)N)NC(=O)[C@@H]1CCCN1C(=O)[C@H](CCCCNC(=N)N)NC(=O)[C@@H](CCC(N)=O)NC(=O)C(C)(C)C(=O)NCCc1cnc[nH]1)C(=O)NC(C)(C)C(=O)N[C@@H](Cc1c[nH]cn1)C(=O)N[C@@H](CC1CCNCC1)C(=O)NCC(=O)N1[C@H](C(=O)N[C@@H](Cc2ccc(Br)cc2)C(=O)N2CCC[C@H]2C(=O)N[C@H](Cc2ccc(-c3ccccc3)cc2)C(=O)O)C[C@@H]2CCCC[C@@H]21 [Example 50] ({Malonyl(2,2-Me2,histaminyl)}-[dQ][hArg]P[dR]L[Aib]H[Ala(piperidin-4-yl)]G[Oic][Phe(4-Br)]P[dBip]-OH) | 56.5% | 39.8 nM | > 10 µM
10 |  |  | CC(C)C[C@H](NC(=O)[C@@H](CCCNC(=N)N)NC(=O)[C@@H]1CCCCN1C(=O)[C@H](CCCCNC(=N)N)NC(=O)[C@H](CCC(N)=O)NC(=O)[C@@H](CCCNC(=N)N)NC(=O)C(C)(C)C(=O)NCCc1c[nH]cn1)C(=O)NC(C)(C)C(=O)N[C@@H](Cc1c[nH]cn1)C(=O)N[C@@H](CC1CCNCC1)C(=O)NCC(=O)N1[C@H](C(=O)N[C@@H](Cc2ccc(Br)cc2)C(=O)N2CCC[C@H]2C(=O)N[C@H](Cc2ccc(-c3ccccc3)cc2)C(=O)O)C[C@@H]2CCCC[C@@H]21 [Example 12] ({Malonyl(2,2-Me2,histaminyl)}-[dR]Q[hArg][Pip][dR]L[Aib]H[Ala(piperidin-4-yl)]G[Oic][Phe(4-Br)]P[dBip]-OH) | 98.9% | 7.94 nM | > 10 µM
11 |  |  | CC(C)C[C@H](NC(=O)[C@H](CCCNC(=N)N)NC(=O)[C@@H]1CCCN1C(=O)[C@@H](CCCNC(=N)N)NC(=O)[C@H](CCC(N)=O)NC(=O)C(C)(C)C(=O)NCCc1cnc[nH]1)C(=O)NC(C)(C)C(=O)N[C@@H](Cc1c[nH]cn1)C(=O)N[C@@H](CC1CCNCC1)C(=O)NCC(=O)N1[C@H](C(=O)N[C@@H](Cc2ccc(Br)cc2)C(=O)N2CCC[C@H]2C(=O)N[C@H](Cc2ccc(-c3ccccc3)cc2)C(=O)O)C[C@@H]2CCCC[C@@H]21 [Example 40] ({Malonyl(2,2-Me2,histaminyl)}-Q[dR]PRL[Aib]H[Ala(piperidin-4-yl)]G[Oic][Phe(4-Br)]P[dBip]-OH) | 84.8% | 25.1 nM | > 10 µM
12 | 66.1% | 6.31 nM | CC(C)C[C@H](NC(=O)[C@@H](CCCNC(=N)N)NC(=O)[C@@H]1CCCN1C(=O)[C@H](CCCCNC(=N)N)NC(=O)[C@H](CCC(N)=O)NC(=O)[C@@H](CCCNC(=N)N)NC(=O)C(C)(C)C(=O)NCc1c[nH]cn1)C(=O)NC(C)(C)C(=O)N[C@@H](Cc1c[nH]cn1)C(=O)N[C@@H](CC1CCNCC1)C(=O)NCC(=O)N1[C@H](C(=O)N[C@@H](Cc2ccc(Br)cc2)C(=O)N2CCC[C@H]2C(=O)N[C@H](Cc2ccc(-c3ccccc3)cc2)C(=O)O)C[C@@H]2CCCC[C@@H]21 [Example 27] (X5-[dR]Q[hArg]P[dR]L[Aib]H[Ala(piperidin-4-yl)]G[Oic][Phe(4-Br)]P[dBip]-OH) |  |  | > 10 µM
